Source: ChEMBL document CHEMBL1201862, “PubChem BioAssay data set” (2004)
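Protocol summary: plate cells (96-well), add compound at 5 concentrations, incubate 48 h, interpolate endpoints linearly. GI50: concentration for 50% inhibition of growth.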 The source made the active and inactive calls. Cut-off read from the data, not from the text of the source: active = GI50 up to about 1.1 µM and inactive = higher.

Experiments:
Assay in all cases: NCI anticancer screen, dose series, 48 h
[1] = system: DMS-273
[2] = system: M19-MEL
[3] = system: XF498
[4] = system: HOP-18
[5] = system: SNB-78
[6] = system: DLD-1
[7] = system: DMS-114
[8] = system: KM-20L2
[9] = system: RXF 631

COc1ccc(-c2cc(O)c3cc4c(cc3n2)OCO4)c(OC)c1
GI50 [1]: 33.7 µM (inactive)
GI50 [2]: 43 µM (inactive)
GI50 [3]: 30.3 µM (inactive)
GI50 [4]: 56.4 µM (inactive)
GI50 [5]: 54.7 µM (inactive)
GI50 [6]: 36.8 µM (inactive)

CC1(O)CC2C(CC1SCCO)C2(C)C (centres undefined)
GI50 [1]: > 100 µM (inactive)
GI50 [2]: > 100 µM (inactive)
GI50 [7]: > 100 µM (inactive)
GI50 [3]: > 100 µM (inactive)
GI50 [4]: > 100 µM (inactive)
GI50 [5]: > 100 µM (inactive)
GI50 [6]: > 100 µM (inactive)

O=C1CCCCC/C=C2/CC[C@H](Sc3ccccc3)[C@@H]12
GI50 [8]: > 100 µM (inactive)
GI50 [1]: 87.1 µM (inactive)
GI50 [2]: > 100 µM (inactive)
GI50 [7]: 72.3 µM (inactive)
GI50 [4]: 43.8 µM (inactive)
GI50 [5]: 31.3 µM (inactive)

CC1NOC(=O)C1/N=N/c1ccccc1Br (centres undefined)
GI50 [8]: 38.3 µM (inactive)
GI50 [1]: 31.6 µM (inactive)
GI50 [2]: 19 µM (inactive)
GI50 [7]: 18.9 µM (inactive)
GI50 [9]: 31.3 µM (inactive)
GI50 [3]: 20.3 µM (inactive)
GI50 [4]: 26.5 µM (inactive)
GI50 [5]: 26.5 µM (inactive)
GI50 [6]: 31.6 µM (inactive)

N/N=C1/C(=O)N(c2ccc(Cl)cc2)C(=O)C(=O)C1c1nc2ccccc2s1 (centres undefined)
GI50 [8]: > 100 µM (inactive)
GI50 [1]: > 100 µM (inactive)
GI50 [2]: > 100 µM (inactive)
GI50 [7]: > 100 µM (inactive)
GI50 [3]: > 95.1 µM (inactive)
GI50 [4]: > 100 µM (inactive)
GI50 [5]: > 100 µM (inactive)
GI50 [6]: > 100 µM (inactive)

CN/N=C(/CC(=O)c1sc(-n2nc(-c3ccccc3)cc2-c2ccccc2)nc1C)C(=O)Nc1ccc(Cl)c(Cl)c1
GI50 [2]: 42.5 µM (inactive)
GI50 [5]: 14 µM (inactive)
GI50 [6]: 37.6 µM (inactive)

[O-][S+]1c2ccc(Cl)cc2CC(SSC2Cc3cc(Cl)ccc3[S+]([O-])c3ccccc32)c2ccccc21 (centres undefined)
GI50 [8]: > 100 µM (inactive)
GI50 [1]: > 100 µM (inactive)
GI50 [2]: > 100 µM (inactive)
GI50 [7]: > 100 µM (inactive)
GI50 [9]: > 100 µM (inactive)
GI50 [4]: > 100 µM (inactive)
GI50 [5]: > 100 µM (inactive)
GI50 [6]: > 100 µM (inactive)

IC[P+]1(c2ccccc2)CCCC1
GI50 [8]: 26.2 µM (inactive)
GI50 [1]: 18.7 µM (inactive)
GI50 [2]: 21.3 µM (inactive)
GI50 [7]: 9.25 µM (inactive)
GI50 [3]: < 0.01 µM (active)
GI50 [4]: 58.7 µM (inactive)
GI50 [5]: > 100 µM (inactive)
GI50 [6]: 52.2 µM (inactive)

CC(=O)C1(O)Cc2c(O)c3c(c(O)c2C(OC2CC(N)C(O)C(C)O2)C1)C(=O)c1ccccc1C3=O (centres undefined)
GI50 [8]: < 0.0152 µM (active)
GI50 [1]: 0.01 µM (active)
GI50 [3]: < 0.0125 µM (active)
GI50 [4]: 0.01 µM (active)
GI50 [5]: 0.0457 µM (active)
GI50 [6]: 0.023 µM (active)

COC(=O)C1=C(C)N(NC(N)=O)C(C)(O)C12CCOC2=O (centres undefined)
GI50 [8]: > 100 µM (inactive)
GI50 [1]: > 100 µM (inactive)
GI50 [2]: > 100 µM (inactive)
GI50 [7]: > 100 µM (inactive)
GI50 [3]: > 100 µM (inactive)
GI50 [4]: > 100 µM (inactive)
GI50 [5]: > 100 µM (inactive)
GI50 [6]: > 100 µM (inactive)

COC(=O)CCc1cccnc1/C=N/O
GI50 [8]: > 100 µM (inactive)
GI50 [1]: > 100 µM (inactive)
GI50 [2]: > 100 µM (inactive)
GI50 [7]: > 100 µM (inactive)
GI50 [9]: > 100 µM (inactive)
GI50 [4]: > 100 µM (inactive)
GI50 [5]: > 100 µM (inactive)
GI50 [6]: > 100 µM (inactive)

COc1ccccc1NC(=O)C1=C(C)NC(C)=C(C(=O)Nc2ccccc2OC)C1c1ccccc1F
GI50 [8]: 92.9 µM (inactive)
GI50 [1]: 70.3 µM (inactive)
GI50 [7]: 47.8 µM (inactive)
GI50 [9]: > 100 µM (inactive)
GI50 [4]: > 100 µM (inactive)
GI50 [5]: 51.5 µM (inactive)
GI50 [6]: > 100 µM (inactive)

O=C(CN1CCCCC1)N1CCc2c([nH]c3ccccc23)C1c1cccnc1 (centres undefined)
GI50 [8]: > 100 µM (inactive)
GI50 [1]: > 100 µM (inactive)
GI50 [2]: > 100 µM (inactive)
GI50 [7]: > 100 µM (inactive)
GI50 [9]: > 100 µM (inactive)
GI50 [3]: > 100 µM (inactive)
GI50 [4]: > 100 µM (inactive)
GI50 [5]: > 100 µM (inactive)
GI50 [6]: > 100 µM (inactive)

Cn1nc(-c2ccccc2)c(C(=O)/C=C/c2ccc(Cl)cc2)c(N2CCCCC2)c1=O
GI50 [8]: 2.43 µM (inactive)
GI50 [1]: 2.31 µM (inactive)
GI50 [2]: 2.25 µM (inactive)
GI50 [7]: 1.92 µM (inactive)
GI50 [9]: 3.4 µM (inactive)
GI50 [3]: 1.64 µM (inactive)
GI50 [4]: 2.16 µM (inactive)
GI50 [6]: 2.53 µM (inactive)

CC(=O)NNc1nc(C)c(C(=O)NNC(=O)C(=O)Nc2ccc(C)c(C)c2)s1
GI50 [8]: > 100 µM (inactive)
GI50 [1]: > 100 µM (inactive)
GI50 [2]: 68.1 µM (inactive)
GI50 [7]: 32.2 µM (inactive)
GI50 [4]: > 100 µM (inactive)
GI50 [5]: > 100 µM (inactive)
GI50 [6]: 93.8 µM (inactive)

CC(=O)NC1C(OCc2ccccc2)OC(COC(=O)CCCCCCCCCCNC(=O)CCNc2ccc([N+](=O)[O-])c3[nH]c4ccc(O)cc4c(=O)c23)C(O)C1OC(C)C(=O)N[C@H](C(=O)N[C@H](CCC(=O)O)C(N)=O)C(C)C (some centres undefined)
GI50 [8]: 25.4 µM (inactive)
GI50 [1]: 40.3 µM (inactive)
GI50 [2]: 79.1 µM (inactive)
GI50 [7]: 36.2 µM (inactive)
GI50 [9]: 90.6 µM (inactive)
GI50 [4]: > 100 µM (inactive)
GI50 [5]: 45.7 µM (inactive)
GI50 [6]: 33.5 µM (inactive)

CC(C)=CC1CCc2ccccc2N1S(=O)(=O)c1ccc(C)cc1 (centres undefined)
GI50 [8]: 1.34 µM (inactive)
GI50 [1]: 0.697 µM (active)
GI50 [2]: 1.44 µM (inactive)
GI50 [7]: 1.06 µM (active)
GI50 [9]: 2.96 µM (inactive)
GI50 [3]: 3.63 µM (inactive)
GI50 [4]: 4.19 µM (inactive)
GI50 [5]: 1.44 µM (inactive)
GI50 [6]: 2.57 µM (inactive)

Cc1c(C(=O)/C=C/c2ccccc2Cl)[n+]([O-])c2ccccc2[n+]1[O-]
GI50 [8]: 16.9 µM (inactive)
GI50 [1]: 14.3 µM (inactive)
GI50 [2]: 14.7 µM (inactive)
GI50 [7]: 6.97 µM (inactive)
GI50 [9]: 15.2 µM (inactive)
GI50 [4]: 15 µM (inactive)
GI50 [5]: 12.4 µM (inactive)
GI50 [6]: 6.53 µM (inactive)

CC12CCC(C)(c3cc(O)c(O)cc31)c1cc(O)c(O)cc12
GI50 [8]: 19 µM (inactive)
GI50 [1]: 17.3 µM (inactive)
GI50 [2]: 13.7 µM (inactive)
GI50 [7]: 14.8 µM (inactive)
GI50 [9]: 20.2 µM (inactive)
GI50 [3]: 17.1 µM (inactive)
GI50 [5]: 17.7 µM (inactive)
GI50 [6]: 17.5 µM (inactive)

C=C1C(=O)OC2C1CC[C@H](C)C1(O)C(O)CC(=O)[C@@]21C (some centres undefined)
GI50 [1]: 22.3 µM (inactive)
GI50 [2]: 12.3 µM (inactive)
GI50 [7]: 16.7 µM (inactive)
GI50 [5]: 26.7 µM (inactive)
GI50 [6]: 18.7 µM (inactive)

[N-]=[N+]=NC(CI)c1cn([C@H]2C[C@H](O)[C@@H](CO)O2)c(=O)[nH]c1=O (some centres undefined)
GI50 [8]: > 100 µM (inactive)
GI50 [1]: > 100 µM (inactive)
GI50 [2]: > 100 µM (inactive)
GI50 [7]: 56 µM (inactive)
GI50 [3]: 80.2 µM (inactive)
GI50 [4]: 2.92 µM (inactive)
GI50 [5]: > 100 µM (inactive)
GI50 [6]: > 100 µM (inactive)

COc1cc2c(c(OC)c1OC)-c1ccc(SC)c(=O)cc1[C@@H](NC(=O)c1ccc(F)cc1)CC2
GI50 [8]: 0.0233 µM (active)
GI50 [1]: < 0.01 µM (active)
GI50 [2]: 0.0409 µM (active)
GI50 [3]: 0.049 µM (active)
GI50 [5]: 0.055 µM (active)
GI50 [6]: 0.0423 µM (active)

O=C(NP(=O)(N1CC1)N1CC1)c1cc(I)ccc1I [DIIODBENZOTEPH]
GI50 [8]: > 100 µM (inactive)
GI50 [1]: 11.6 µM (inactive)
GI50 [2]: 58.9 µM (inactive)
GI50 [7]: 19.9 µM (inactive)
GI50 [3]: > 52.6 µM (inactive)
GI50 [4]: > 92.3 µM (inactive)
GI50 [5]: > 100 µM (inactive)
GI50 [6]: > 100 µM (inactive)
